For orientation: IC50 means the concentration needed to halve the response being measured.

These results are taken from patent US11446287B2, “Compounds and methods for EP300 or CBP modulation and indications therefor” (Opna Immuno-Oncology SA, priority 2019, dated 2022).

This assay deals with T1, Recombinant human CBP containing the bromodomain (CBP-BD (1043-1159)) (Homo sapiens, UniProt Q92793).
T1 construct: Recombinant human CBP bromodomain (CBP-BD (1043-1159)); made in house; host or cells: E. coli BL21-CodonPlus (DE3), modified pET vector
T1 sequence (Q92793 1081-1197): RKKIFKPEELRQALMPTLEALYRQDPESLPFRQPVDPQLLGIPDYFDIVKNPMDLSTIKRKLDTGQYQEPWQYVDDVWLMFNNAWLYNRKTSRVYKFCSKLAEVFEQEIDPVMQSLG
As to the kind of experiment: CBP Alphascreen binding assay. Conditions: read-out: CREBBP (CBP) IC50. Put shortly:
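Buffer: 50 mM HEPES pH 7.5, 50 mM NaCl, 0.01% BSA, 0.01% Triton X-100, 2 mM DTT. The signal was normalised to plate controls and fitted with a four-parameter curve to give IC50.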
Background: In Alpha technology, singlet oxygen from a donor bead excites a nearby acceptor bead.

Consider `Cc1noc(C)c1-c1cnc2c(c1)c(-c1cccc(C(=O)O)c1)cn2Cc1cccc(C(F)(F)F)c1` [P-0063, 3-(5-(3,5-dimethylisoxazol-4-yl)-1-(3-(trifluoromethyl)benzyl)-1H-pyrrolo[2,3-b]pyridin-3-yl)benzoic acid], for which the IC50 lay within 0.1 to 1000 nM.

With `Cc1noc(C)c1-c1cnc2c(CC3CCC3)cn(-c3ccc(C(=O)O)cc3OC(F)F)c2c1` [P-0064, 4-(3-(cyclobutylmethyl)-6-(3,5-dimethylisoxazol-4-yl)-1H-pyrrolo[3,2-b]pyridin-1-yl)-3-(difluoromethoxy)benzoic acid], the IC50 lay in the range of 0.1 to 1000 nM. As to `Cc1noc(C)c1-c1cnc2c(CC3CC3)cn(-c3ccnc(C(=O)O)c3)c2c1` [P-0065, 4-(3-(cyclopropylmethyl)-6-(3,5-dimethylisoxazol-4-yl)-1H-pyrrolo[3,2-b]pyridin-1-yl)picolinic acid], the IC50 lay in the range of 0.1 to 1000 nM. The value for `Cc1noc(C)c1-c1cnc2c(CC3CCC3)cn(-c3ccc(C(=O)O)cc3OC(F)(F)F)c2c1` [P-0066, 4-(3-(cyclobutylmethyl)-6-(3,5-dimethylisoxazol-4-yl)-1H-pyrrolo[3,2-b]pyridin-1-yl)-3-(trifluoromethoxy)benzoic acid] was 0.1 to 1000 nM; that for `COc1cc(C(=O)O)cc(OC)c1-n1cc(CC2CCC2)c2ncc(-c3c(C)noc3C)cc21` [P-0067, 4-(3-(cyclobutylmethyl)-6-(3,5-dimethylisoxazol-4-yl)-1H-pyrrolo[3,2-b]pyridin-1-yl)-3,5-dimethoxybenzoic acid] was 0.1 to 1000 nM. `Cc1noc(C)c1-c1cnc2c(CC3CCC3)cn(-c3ccc(S(C)(=O)=O)c(F)c3)c2c1` [P-0068, 4-(3-(cyclobutylmethyl)-1-(3-fluoro-4-(methylsulfonyl)phenyl)-1H-pyrrolo[3,2-b]pyridin-6-yl)-3,5-dimethylisoxazole]: the IC50 fell in the range of 0.1 to 1000 nM. As to `Cc1noc(C)c1-c1cnc2c(c1)c(C#CC(=O)O)cn2Cc1ccccc1` [P-0069, 3-(1-benzyl-5-(3,5-dimethylisoxazol-4-yl)-1H-pyrrolo[2,3-b]pyridin-3-yl)propiolic acid], the concentration for half-maximal inhibition (IC50) fell in the range of 0.1 to 1000 nM. On to `Cc1noc(C)c1-c1cnc2c(c1)c(-c1ccc(C(=O)O)cc1OC(F)(F)F)cn2[C@@H](C)c1ccccn1` [P-0070, (S)-4-(5-(3,5-dimethylisoxazol-4-yl)-1-(1-(pyridin-2-yl)ethyl)-1H-pyrrolo[2,3-b]pyridin-3-yl)-3-(trifluoromethoxy)benzoic acid], for which the IC50 is 0.1 to 1000 nM.

On to `Cc1noc(C)c1-c1cnc2c(c1)c(-c1ccc(C(=O)O)cc1OC(F)F)cn2[C@@H](C)c1ccccn1` [P-0071, (S)-3-(difluoromethoxy)-4-(5-(3,5-dimethylisoxazol-4-yl)-1-(1-(pyridin-2-yl)ethyl)-1H-pyrrolo[2,3-b]pyridin-3-yl)benzoic acid], for which the half-maximal inhibitory concentration (IC50) fell in the range of 0.1 to 1000 nM.

With `Cc1noc(C)c1-c1cnc2c(c1)c(-c1cccc(C(=O)O)c1)cn2C(C1CCC1)C1CCC1` [P-0072, 3-(1-(dicyclobutylmethyl)-5-(3,5-dimethylisoxazol-4-yl)-1H-pyrrolo[2,3-b]pyridin-3-yl)benzoic acid], the IC50 lay in the range of 0.1 to 1000 nM. `Cc1noc(C)c1-c1cnc2c(c1)c(-c1cccc(C(=O)O)c1)cn2C(c1ccccn1)C1CCC1` (stereo not shown) [P-0073, 3-(1-(cyclobutyl(pyridin-2-yl)methyl)-5-(3,5-dimethylisoxazol-4-yl)-1H-pyrrolo[2,3-b]pyridin-3-yl)benzoic acid]: the IC50 was in the range of 0.1 to 1000 nM. In the case of `Cc1noc(C)c1-c1cnc2c(CC3CCC3)cn(-c3c(Cl)cc(C(=O)O)cc3Cl)c2c1` [P-0074, 3,5-dichloro-4-(3-(cyclobutylmethyl)-6-(3,5-dimethylisoxazol-4-yl)-1H-pyrrolo[3,2-b]pyridin-1-yl)benzoic acid], the IC50 lay in the range of 0.1 to 1000 nM. `Cc1cc(C(=O)O)cnc1-n1cc(CC2CCC2)c2ncc(-c3c(C)noc3C)cc21` [P-0075, 6-(3-(cyclobutylmethyl)-6-(3,5-dimethylisoxazol-4-yl)-1H-pyrrolo[3,2-b]pyridin-1-yl)-5-methylnicotinic acid]: the IC50 fell in the range of 0.1 to 1000 nM.
